Reference: ChEMBL document CHEMBL4483862, “Open-source discovery of chemical leads for next-generation chemoprotective antimalarials” (2018)

System: Plasmodium berghei
Assay: Luciferase/luciferin-expressing antifolate-resistant parasites were used to infect a culture of HepG2 cells that were pre-incubated with compounds. Infected hepatocytes emit light due to the luciferase reaction. Assay results are presented as the percent inhibition of light emission compared to control. […]
Format: functional
Conditions: sporozoite; for IC50: read-out: LUCIFERASE INFECTION ASSAY - IC50; for IC90: read-out: LUCIFERASE INFECTION ASSAY - IC90

Row | SMILES | IC50 [µM] | IC90 [µM]
1 | NC(=O)C1CCN(C(=O)CCn2c(=O)oc3ccccc32)CC1 | > 10 | > 10
2 | O=C(Nc1ccc(-c2nc3ccccc3[nH]2)cc1)C1CCCO1 (stereo not given) | > 10 | > 10
3 | O=C(C1CCCN(C2=NS(=O)(=O)c3ccccc32)C1)N1CCOCC1 (stereo not given) | > 10 | > 10
4 | CC(NC1CCCCCC1)C(=O)c1c[nH]c2ccccc12 (stereo not given) | > 10 | > 10
5 | COC(=O)c1sc2[nH]c(COC(=O)c3ccccc3)nc(=O)c2c1C | > 10 | > 10
6 | CN(C)c1nc(N)nc(COC(=O)c2cccc(Br)c2)n1 | > 10 | > 10
7 | Cc1[nH]c2ccccc2c1-c1nc(Nc2ccc3c(c2)OCCO3)sc1C | > 10 | > 10
8 | CC(=O)c1c(C)[nH]c(C(=O)Nc2ccc3ccccc3n2)c1C | 0.934 | 1.16
9 | O=C1NC(c2ccc(N3CCCCC3)cc2)Nc2ccccc21 (stereo not given) | 0.0973 | 0.743
10 | Cc1nc(SCc2csc(-c3ccccc3)n2)c(C#N)c(C)c1C | > 10 | > 10
11 | CC(=O)c1c(C)[nH]c(C(=O)COC(=O)c2cnn(-c3ccccc3)c2)c1C | > 10 | > 10
12 | O=C(NCCOc1ccc(Cl)cc1)c1ccc(=O)n(Cc2ccccc2)n1 | > 10 | > 10
13 | Cc1c(Cl)c(CN2C(=O)C(=O)N(Cc3cccs3)C2=O)nc2ccccc12 | > 10 | > 10
14 | CCOC(=O)NC(=O)COC(=O)CCc1ccc(OC)cc1 | > 10 | > 10
15 | CCOc1ccc(CN(CC)C(=O)c2ccc(=O)[nH]c2)cc1OC | > 10 | > 10
16 | O=C(Nc1ccccc1C(=O)OCCC(F)(F)F)c1ccccc1 | > 10 | > 10
17 | Cn1nc(C(=O)NCC(c2cccs2)N2CCCC2)c2ccccc2c1=O (stereo not given) | > 10 | > 10
18 | COc1ccc(-n2c(=O)c3ccccc3n3c(SCC(N)=O)nnc23)cc1 | > 10 | > 10
19 | Cc1cc(C(=O)CSc2nc(N)nc(N)n2)c(C)n1CCC1=CCCCC1 | > 10 | > 10
20 | Cc1ccc(C)c(-c2nn(CC(=O)c3cc(C)n(C)c3C)c(=O)c3ccccc23)c1 | > 10 | > 10
21 | CN(C)C(=O)CN(C)S(=O)(=O)/C=C/c1ccccc1 | > 10 | > 10
22 | O=C(CN1CCN(C(=O)CCc2cnn(-c3ccccc3)c2)CC1)NC1CC1 | > 10 | > 10
23 | O=C(OCc1cc(=O)n2cc(Br)ccc2n1)C1(c2ccccc2)CC1 | > 10 | > 10

Row | SMILES | IC50 [µM] | IC90 [µM]
24 | CC(=O)NCCCc1ccc(C(=O)Cn2cc(C(F)(F)F)ccc2=O)cc1 | > 10 | > 10
25 | O=C(NC1CCCc2ccccc21)c1cc(Cl)nc(Cl)c1 (stereo not given) | > 10 | > 10
26 | Cc1cc(C)cc(NC(=O)C(Sc2nc(=O)cc(N)[nH]2)c2ccccc2)c1 (stereo not given) | > 10 | > 10
27 | O=C(Cc1noc2ccccc12)N1CCN(c2ccc(C(F)(F)F)cn2)CC1 | > 10 | > 10
28 | Cc1ccc(-n2c(C)nnc2SCCCc2nc(-c3ccccc3)no2)cc1 | > 10 | > 10
29 | CCCc1ccc(-c2nc(NC(=O)CCc3ccsc3)sc2C)cc1 | > 10 | > 10
30 | CC(Sc1nc(-c2ccccc2)c(-c2ccccc2)o1)C(=O)N1CCNC1=O (stereo not given) | > 10 | > 10
31 | CCNc1nnc(SCc2nc(-c3cccs3)no2)s1 | > 10 | > 10
32 | Cc1ccc(C(=O)CCC(=O)NCc2ccccc2)s1 | > 10 | > 10
33 | CCNc1nnc(SCC(=O)N2CCNC2=O)s1 | > 10 | > 10
34 | O=C(CCc1cccnc1)Nc1nc(-c2ccc3c(c2)OCCO3)cs1 | > 10 | > 10
35 | C=CCN(C(=O)c1cc(C2CC2)nc2ccccc12)c1nc2c(s1)CCCC2 | > 10 | > 10
36 | O=C(c1cc(-c2ccccc2)n[nH]1)N1CCN(c2ccccc2F)CC1 | > 10 | > 10
37 | O=C1COc2ccc(-c3csc(Nc4ccccc4C(F)(F)F)n3)cc2N1 | 5.54 | > 10
38 | O=C(NCCN1CCN(c2ncnc3sc4c(c23)CCC4)CC1)c1ccco1 | > 10 | > 10
39 | Cc1ccc(-c2nc3nc(N)n(C)c(=O)c3[nH]c2=O)cc1 | > 10 | > 10
40 | CC(NC(=O)Cn1c2ccccc2c(=O)c2ccccc21)c1cc2ccccc2o1 (stereo not given) | 6.06 | > 10
41 | CCn1c(NC(=O)c2cccnc2Oc2ccccc2)nc2ccccc21 | > 10 | > 10
42 | CC(=O)NCCc1ccc(C(=O)Cn2cnc3ccc(Cl)cc3c2=O)s1 | > 10 | > 10
43 | O=C(CCc1cccnc1)Nc1ccc(OC(F)(F)F)cc1 | > 10 | > 10
44 | C#CCNS(=O)(=O)c1cccc(C(=O)Nc2nc(C)c(C)s2)c1 | > 10 | > 10
45 | CC(C)(C)C(=O)COC(=O)c1ccc(-c2ccc(O)cc2)cc1 | > 10 | > 10
46 | Cc1nc(-c2ccccc2)sc1C(=O)OC(C)C(=O)N1CCNC1=O (stereo not given) | > 10 | > 10

Row | SMILES | IC50 [µM] | IC90 [µM]
47 | CCOC(=O)C1=C(CN(C)C2CCCCC2)NC(=O)NC1 | > 10 | > 10
48 | COC(=O)c1ccccc1N(C)S(=O)(=O)c1ccc(Cl)cc1F | > 10 | > 10
49 | CCCNC(=O)COC(=O)c1cc(Br)ccc1N | > 10 | > 10
50 | COC(=O)c1ccc(S(=O)(=O)N2c3ccccc3CCC2C)cc1 (stereo not given) | > 10 | > 10
51 | Cc1cc(C(C)(C)C)cc(C)c1CCN1C(=O)CSC1c1cccnc1 (stereo not given) | > 10 | > 10
52 | COC(=O)c1c(C)[nH]c(C(=O)CSc2nnc(C)s2)c1C | > 10 | > 10
53 | COCCCn1c(SCC(=O)NC(=O)Nc2ccccc2)n[nH]c1=O | > 10 | > 10
54 | CCOc1ccccc1CCC(=O)NCc1ccc(CS(N)(=O)=O)cc1 | > 10 | > 10
55 | CCCN1CCN(c2c3ccc(Cl)cc3nc3ccc(OC)cc23)CC1 | > 10 | > 10
56 | CCNC(=O)c1cccc(Nc2nc(C(F)(F)F)nc3ccccc23)c1 | > 10 | > 10
57 | CCC(Sc1nnc(-c2ccccc2F)[nH]1)C(=O)Nc1ccccc1 (stereo not given) | > 10 | > 10
58 | O=C(CCc1nc2ccccc2s1)N(Cc1ccccc1F)C1CC1 | > 10 | > 10
59 | Cc1c(-n2nnnc2SCC(C)C)c(=O)n(-c2ccccc2)n1C | > 10 | > 10
60 | Cc1ccc2c(Cl)cc(Cl)c(OCC(=O)NC3CCCCC3C)c2n1 (stereo not given) | > 10 | > 10
61 | Cc1cc(C)c(SC(C)C(=O)NC(N)=O)c(C)c1 (stereo not given) | > 10 | > 10
62 | COC(=O)c1cc(CNC(=O)c2ccccc2O)ccc1OC | > 10 | > 10
63 | Cc1cccc(-n2c(SC(C)C(N)=O)nc3ccccc3c2=O)n1 (stereo not given) | > 10 | > 10
64 | O=C(CN1CCN(C(=O)CN2C(=O)NC3(CCCC3)C2=O)CC1)N1CCCC1 | > 10 | > 10
65 | C1=C(c2nc3ccccc3[nH]2)C(c2ccccc2)=NNC1c1ccccc1 (stereo not given) | 9.97 | > 10
66 | CN(C)S(=O)(=O)c1ccc(N2CCCC2)c(C(=O)N2CCCC2)c1 | > 10 | > 10
67 | Cc1ccc2cc(CN3CCCCC3C(N)=O)c(Cl)nc2c1C (stereo not given) | > 10 | > 10
68 | Cn1cnnc1SCC(=O)NC(Cc1c[nH]c2ccccc12)C(=O)O (stereo not given) | > 10 | > 10
69 | O=C(CN1CCN(Cc2nc3ccccc3s2)CC1)N1CCc2ccccc21 | > 10 | > 10

Row | SMILES | IC50 [µM] | IC90 [µM]
70 | CCn1c(SCc2nc3ccccc3c(=O)n2CC(N)=O)nnc1C1CC1 | > 10 | > 10
71 | O=C(OCc1cccc(Cl)c1)c1cncn1-c1ccccc1 | > 10 | > 10
72 | Cc1c(C(=O)Nc2ncc(Cc3ccccc3)s2)[nH]c2c1C(=O)CC(C)(C)C2 | > 10 | > 10
73 | O=c1nc(CN2CCN(c3ccc(C(F)(F)F)cn3)CC2)[nH]c2ccccc12 | > 10 | > 10
74 | CN(C)C(=O)CNC(=O)c1ccc(C(F)(F)F)cc1 | > 10 | > 10
75 | Cc1nn(Cc2nnc(-c3ccco3)o2)c(C)c1S(=O)(=O)N1CCCCC1 | > 10 | > 10
76 | O=C(COC(=O)CNS(=O)(=O)/C=C/c1ccccc1)NC1CCCCC1 | > 10 | > 10
77 | CC(C)c1ccc(-c2nnc(NC(=O)c3cn4ccccc4n3)s2)cc1 | 9.54 | > 10
78 | CCc1nn2c(=O)cc(CSc3nnc(-c4cc(C)cc(C)c4)o3)nc2s1 | > 10 | > 10
79 | Cc1cc(-c2nc(C)sc2CC(=O)O)c(C)s1 | > 10 | > 10
80 | CC(C)Cn1c(SC2CCOC2=O)nc2cc(Cl)ccc2c1=O (stereo not given) | > 10 | > 10
81 | COC(=O)c1cc(-c2ccc(C)cc2)nc2onc(C(C)C)c12 | > 10 | > 10
82 | O=C(c1c[nH]nc1-c1ccccc1)N1CCN(S(=O)(=O)c2ccccc2)CC1 | > 10 | > 10
83 | CC(C)(C)C(=O)CSc1nnc(-c2ccccc2F)[nH]1 | > 10 | > 10
84 | CCC1c2ccsc2CCN1Cc1cc(=O)n2cc(Cl)ccc2n1 (stereo not given) | > 10 | > 10
85 | CCOC(=O)c1ccc(OC(C)C(=O)NC2CCCC(C)C2C)cc1 (stereo not given) | > 10 | > 10
86 | C#CC(CC)(CC)NC(=O)CSc1nc(C)nc2sc3c(c12)CCC3 | > 10 | > 10
87 | COc1cc(/C=C2\C=c3ccccc3=C2O)cc(Cl)c1OC(C)C | > 10 | > 10
88 | CCNC(=O)NC(=O)C(c1ccccc1)n1nc(C(=O)O)c2ccccc2c1=O (stereo not given) | > 10 | > 10
89 | Cc1csc(=O)n1CC(=O)Nc1cccc2ccccc12 | > 10 | > 10
90 | Cc1cc(=O)[nH]c(SCC(=O)c2cc(C)n(-c3ccccc3)c2C)c1C#N | > 10 | > 10
